Assay [1] has as its target T1, PI3Kα (p110α/p85α) (Homo sapiens, UniProt P42336).
T1 construct: GST (N); made in house; host or cells: Baculovirus-infected Sf9 cells
Kind of assay: PI3Kα ADP-Glo assay. Type of assay: biochemical. Particulars: 20 μM PIP2, 10 μM ATP, 30 minutes. Here is the method: (A) an In Vitro Assay which Determines the Ability of a Test Compound to Inhibit PI3Kα.
Activity of PI3Kα was measured using ADP-Glo assay from Promega. PI3Kα, a complex of N-terminal GST-tagged recombinant full-length human p110α (GenBank, Accession No. U79143) and N-terminal His tagged recombinant full length human p85a (GenBank Accession No. XM—043865) were co-expressed in a Baculovirus infected Sf9 cell expression system. The ADP-Glo assay was performed to measure the amount of ADP generated from ATP hydrolysis coupled with PIP2 phosphorylation by the purified recombinant PI3Kα (p110α/p85α). PI3Kα was incubated with 20 μM PIP2 substrate in the reaction buffer (50 mM HEPES, pH 7.4, 150 mM NaCl, 5 mM MgCl2, 1 mM DTT, 3 uM Naorthovanadate, 10 μM ATP and 0.5% DMSO) for 30 minutes at room temperature. The ADP generated was then detected by ADP-Glo assay from Promega, a luminescent ADP detection assay. The ADP-Glo assay is performed in two steps; first, after the kinase reaction, ADP-Glo Reagent is added to terminate the kinase reaction and deplete the remaining ATP. Second, the Kinase Detection Reagent is added to simultaneously convert ADP to ATP and allow the newly synthesized ATP to be measured using a luciferase/luciferin reaction.
(ADP-Glo first removes unused ATP, then detects ADP through luciferase.)

Assay [2] has as its system HDACs (HeLa cell nuclear extracts). The experiment in a line: HDAC enzymatic activity, Biomol Color de Lys system. Format: biochemical. Particulars: 1 hour, 25° C. Here is the method: (E) an In Vitro Assay which Determines the Ability of a Test Compound to Inhibit HDAC Enzymatic Activity.
HDAC inhibitory activity was assessed using the Biomol Color de Lys system (AK-500, Biomol, Plymouth Meeting, Pa.). Briefly, HeLa cell nuclear extracts were used as a source of HDACs. Different concentrations of test compounds were serially diluted in dimethylsulphoxide (DMSO) and added to HeLa cell nuclear extracts in the presence of a colorimetric artificial substrate. Final assay condition contained 50 mM Tris/Cl, pH 8.0, 137 mM NaCl, 2.7 mM KCl and 1 mM MgCl2. Reactions were carried in room temperature (25° C.) for 1 hour before addition of developer for termination. Relative enzyme activity was measured in the WALLAC Victor II 1420 microplate reader as fluorescence intensity (excitation: 350-380 nm; emission: 440-460 nm). Data were analyzed using GraphPad Prism (v4.0a) with a sigmoidal dose response curve fitting for IC50 calculation.

A value given as a limit tells only on which side of the number the result lay.

T1 sequence (P42336 whole entry): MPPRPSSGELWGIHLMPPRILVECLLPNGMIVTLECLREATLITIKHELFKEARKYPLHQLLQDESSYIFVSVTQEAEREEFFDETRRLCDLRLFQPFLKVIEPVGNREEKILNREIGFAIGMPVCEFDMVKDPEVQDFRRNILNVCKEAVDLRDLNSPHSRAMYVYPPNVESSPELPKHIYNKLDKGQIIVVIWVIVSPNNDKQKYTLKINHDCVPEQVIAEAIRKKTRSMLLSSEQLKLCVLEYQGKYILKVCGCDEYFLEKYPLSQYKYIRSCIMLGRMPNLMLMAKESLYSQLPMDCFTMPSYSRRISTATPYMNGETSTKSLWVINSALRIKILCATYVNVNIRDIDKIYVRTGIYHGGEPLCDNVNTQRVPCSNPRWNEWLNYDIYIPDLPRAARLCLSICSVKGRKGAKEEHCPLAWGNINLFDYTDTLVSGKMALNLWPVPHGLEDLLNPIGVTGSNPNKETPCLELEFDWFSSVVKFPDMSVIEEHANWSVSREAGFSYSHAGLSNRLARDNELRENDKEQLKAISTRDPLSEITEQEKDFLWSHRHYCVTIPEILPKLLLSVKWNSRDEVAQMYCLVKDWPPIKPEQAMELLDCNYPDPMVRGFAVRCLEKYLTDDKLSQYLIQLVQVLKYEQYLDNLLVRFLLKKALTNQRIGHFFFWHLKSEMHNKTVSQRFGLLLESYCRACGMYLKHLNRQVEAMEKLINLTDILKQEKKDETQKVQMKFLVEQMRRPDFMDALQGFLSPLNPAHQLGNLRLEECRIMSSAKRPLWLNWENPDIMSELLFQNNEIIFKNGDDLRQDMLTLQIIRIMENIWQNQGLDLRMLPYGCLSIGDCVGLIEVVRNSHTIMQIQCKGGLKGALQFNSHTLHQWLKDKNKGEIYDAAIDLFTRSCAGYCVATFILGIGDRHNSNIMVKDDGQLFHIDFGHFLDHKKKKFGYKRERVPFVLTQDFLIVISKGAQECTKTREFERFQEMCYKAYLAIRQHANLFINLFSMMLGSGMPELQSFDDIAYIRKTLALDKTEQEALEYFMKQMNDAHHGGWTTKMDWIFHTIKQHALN
T1 sequence (P27986 whole entry partner): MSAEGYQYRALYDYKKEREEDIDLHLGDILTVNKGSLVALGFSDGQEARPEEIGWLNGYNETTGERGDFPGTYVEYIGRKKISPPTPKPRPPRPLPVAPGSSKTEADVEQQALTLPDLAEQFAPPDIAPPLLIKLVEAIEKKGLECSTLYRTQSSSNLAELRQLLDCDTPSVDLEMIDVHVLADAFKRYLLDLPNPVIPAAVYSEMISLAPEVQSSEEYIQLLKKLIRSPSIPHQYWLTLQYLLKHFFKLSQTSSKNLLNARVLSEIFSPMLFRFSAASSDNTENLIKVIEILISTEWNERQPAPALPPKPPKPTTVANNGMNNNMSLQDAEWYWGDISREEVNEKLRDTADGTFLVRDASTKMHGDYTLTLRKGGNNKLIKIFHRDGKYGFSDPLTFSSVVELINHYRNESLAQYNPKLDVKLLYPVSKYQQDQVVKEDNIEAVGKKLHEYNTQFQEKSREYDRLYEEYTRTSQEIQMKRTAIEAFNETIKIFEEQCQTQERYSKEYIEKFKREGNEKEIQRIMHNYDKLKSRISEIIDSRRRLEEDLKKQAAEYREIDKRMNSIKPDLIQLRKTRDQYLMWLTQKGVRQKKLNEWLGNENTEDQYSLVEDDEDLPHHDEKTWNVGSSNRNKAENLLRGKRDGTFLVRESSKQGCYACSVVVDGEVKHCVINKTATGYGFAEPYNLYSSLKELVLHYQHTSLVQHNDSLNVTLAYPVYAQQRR

In the case of `Nc1ccc(-c2nc(N3CCOCC3)c3sc(CNCc4ccc(C(=O)NO)cc4)cc3n2)cc1` [Compound 209], the IC50 (as a rule, the concentration that inhibits the measured activity by half) in assay [1] was more than 10000 nM; in assay [2], less than 100 nM.

In the case of `COc1cccc(Nc2nc(-c3cccc4[nH]ncc34)nc3cc(CN(C)c4ncc(C(=O)NO)cn4)sc23)c1` [Compound 166], the half-inhibitory concentration (IC50) is more than 10000 nM in assay [1] and less than 100 nM in assay [2].

On to `CN(C)CCN(Cc1cc2nc(-c3cccc4[nH]ncc34)nc(N3CCOCC3)c2s1)c1ncc(C(=O)NO)cn1` [Compound 95], for which the IC50 in assay [1] is less than 100 nM; in assay [2] it was 100 to 1000 nM.

As to `CN(Cc1cc2nc(-c3ccc4[nH]ccc4c3)nc(N3CCOCC3)c2s1)c1ncc(C(=O)NO)cn1` [Compound 192], the IC50 in assay [1] is 100 to 1000 nM; in assay [2], less than 100 nM.

Regarding `CS(=O)(=O)N1CCN(Cc2cc3nc(-c4cccc5c4cnn5CCCCCCC(=O)NO)nc(N4CCOCC4)c3s2)CC1` [Compound 5, N-hydroxy-7-(4-(6-((4-(methylsulfonyl)piperazin-1-yl)methyl)-4-morpholinothieno[3,2-d]pyrimidin-2-yl)-1H-indazol-1-yl)heptanamide], the 50% inhibitory concentration (IC50) is more than 10000 nM in assay [1] and less than 100 nM in assay [2].

Consider `CN(C)c1nc(-c2cccc3[nH]ncc23)nc2cc(CN(C)c3ncc(C(=O)NO)cn3)sc12` [Compound 159], for which the IC50 in assay [1] is 1000 to 10000 nM; in assay [2], less than 100 nM.

Turning to `CN(Cc1cc2nc(-c3cccc(S(N)(=O)=O)c3)nc(N3CCOCC3)c2s1)c1ncc(C(=O)NO)cn1` [Compound 305], the results for the IC50 in assay [1] and in assay [2] were 100 to 1000 nM and less than 100 nM, respectively.

For the compound `CNc1ccc(-c2nc(N3CCOCC3)c3sc(CN(CCO)c4ncc(C(=O)NO)cn4)cc3n2)cn1` [Compound 245], the half-inhibitory concentration (IC50) in assay [1] and in assay [2] was less than 100 nM in each case.

For the compound `O=C(/C=C/c1ccc(S(=O)(=O)Nc2cc3nc(-c4cccc5[nH]ncc45)nc(N4CCOCC4)c3s2)cc1)NO` [Compound 50], the IC50 in assay [1] and in assay [2] was less than 100 nM in each case.

On to `COCCN(Cc1cc2nc(-c3cccc4[nH]ncc34)nc(N3CCOCC3)c2s1)c1ncc(C(=O)NO)cn1` [Compound 90, 2-(((2-(1H-indazol-4-yl)-4-morpholinothieno[3,2-d]pyrimidin-6-yl)methyl)(2-methoxyethyl)amino)-N-hydroxypyrimidine-5-carboxamide], for which the IC50 in assay [1] and in assay [2] was less than 100 nM throughout.

For `COc1ccc(-c2nc(N3CCOCC3)c3sc(NCCCCC(=O)NO)cc3n2)cn1` [Compound 230], the IC50 in assay [1] and in assay [2] was less than 100 nM in each case.

Take `CCN(Cc1cc2nc(-c3ccc(N)cc3)nc(N3CCOCC3)c2s1)c1ncc(C(=O)NO)cn1` [Compound 215]: the IC50 is 100 to 1000 nM in assay [1] and less than 100 nM in assay [2].

Regarding `O=C(/C=C/c1cccc(S(=O)(=O)Nc2cc3nc(-c4cccc5[nH]ncc45)nc(N4CCOCC4)c3s2)c1)NO` [Compound 216], the half-maximal inhibitory concentration (IC50) in assay [1] and in assay [2] was less than 100 nM in each case.

With `CC1COCC(C)N1c1nc(-c2cccc3[nH]ncc23)nc2cc(CN(C)c3ncc(C(=O)NO)cn3)sc12` (stereo not drawn) [Compound 66], the IC50 in assay [1] is 100 to 1000 nM; in assay [2], less than 100 nM.

`CNc1ccc(-c2nc(N3CCOCC3)c3sc(NCCCCC(=O)NO)cc3n2)cn1` [Compound 228, N-Hydroxy-5-(2-(6-(methylamino)pyridin-3-yl)-4-morpholino-thieno[3,2-d]pyrimidin-6-ylamino)pentanamide]: the 50% inhibitory concentration (IC50) in assay [1] and in assay [2] was less than 100 nM each time.

Turning to `CN(Cc1cc2nc(-c3cccc(C(=O)O)c3)nc(N3CCOCC3)c2s1)c1ncc(C(=O)NO)cn1` [Compound 303], the half-inhibitory concentration (IC50) in assay [1] was 100 to 1000 nM; in assay [2], less than 100 nM.

Consider `COc1ccc(-c2nc(N3CCOCC3)c3sc(Nc4ncc(C(=O)NO)cn4)cc3n2)cn1` [Compound 253], for which the values for the concentration for half-maximal inhibition (IC50) in assay [1] and in assay [2] were less than 100 nM and 100 to 1000 nM, respectively.

With `COCCN(CCOC)c1nc(-c2cccc3[nH]ncc23)nc2cc(CN(C)c3ncc(C(=O)NO)cn3)sc12` [Compound 163], the figures for the IC50 in assay [1] and in assay [2] were 100 to 1000 nM and less than 100 nM, respectively.

With `Cn1c(CNCc2cc3nc(-c4ccc(N)cc4)nc(N4CCOCC4)c3s2)nc2cc(/C=C/C(=O)NO)ccc21` [Compound 326], the IC50 in assay [1] and in assay [2] was 100 to 1000 nM each time.

With `CCCc1nc2cc(/C=C/C(=O)NO)ccc2n1CCNCc1cc2nc(-c3ccc(NC)nc3)nc(N3CCOCC3)c2s1` [Compound 323], the 50% inhibitory concentration (IC50) is less than 100 nM in assay [1] and 100 to 1000 nM in assay [2].

Turning to `CC(C)(Nc1ncc(C(=O)NO)cn1)c1cc2nc(-c3ccc(N)cc3)nc(N3CCOCC3)c2s1` [Compound 269, 2-(2-(2-(4-Aminophenyl)-4-morpholinothieno[3,2-d]pyrimidin-6-yl)propan-2-ylamino)-N-hydroxypyrimidine-5-carboxamide], the 50% inhibitory concentration (IC50) was 1000 to 10000 nM in assay [1] and less than 100 nM in assay [2].

Take `CC(C)OC(=O)Nc1ccc(-c2nc(N3CCOCC3)c3sc(CN(C)c4ncc(C(=O)NO)cn4)cc3n2)cc1` [Compound 287]: the results for the IC50 in assay [1] and in assay [2] were more than 10000 nM and less than 100 nM, respectively.

As for `CCN(Cc1cc2nc(-c3cccc4[nH]ncc34)nc(N3CCOCC3)c2s1)c1ncc(C(=O)NO)cn1` [Compound 92], the IC50 in assay [1] and in assay [2] was less than 100 nM in each case.

On to `Nc1ccc(-c2nc(N3CCOCC3)c3sc(CN(CCO)c4ncc(C(=O)NO)cn4)cc3n2)cc1F` [Compound 277], for which the IC50 in assay [1] and in assay [2] was less than 100 nM each time.

Turning to `CN(Cc1cc2nc(-c3cccc4[nH]ncc34)nc(N(CCO)CCO)c2s1)c1ncc(C(=O)NO)cn1` [Compound 162], the IC50 was 1000 to 10000 nM in assay [1] and less than 100 nM in assay [2].

For `CNc1ccc(-c2nc(N3CCOCC3)c3sc(CNCc4nc5cc(/C=C/C(=O)NO)ccc5n4C)cc3n2)cn1` [Compound 328], the IC50 in assay [1] was less than 100 nM; in assay [2] it was 100 to 1000 nM.

Take `CN(Cc1cc2nc(-c3cccc4[nH]ncc34)nc(N3CCNCC3)c2s1)c1ncc(C(=O)NO)cn1` [Compound 60]: the figures for the half-maximal inhibitory concentration (IC50) in assay [1] and in assay [2] were more than 10000 nM and less than 100 nM, respectively.

`CNc1ccc(-c2nc(N3CCOCC3)c3sc(C(C)(C)N(C)c4ncc(C(=O)NO)cn4)cc3n2)cn1` [Compound 241]: the IC50 was 100 to 1000 nM in assay [1] and less than 100 nM in assay [2].

Consider `Nc1ccc(-c2nc(N3CCOCC3)c3sc(CN4CCN(c5ncc(C(=O)NO)cn5)CC4)cc3n2)cc1` [Compound 207], for which the IC50 is 100 to 1000 nM in assay [1] and less than 100 nM in assay [2].

Turning to `CN1CCN(c2nc(-c3cccc4[nH]ncc34)nc3cc(CN(C)c4ncc(C(=O)NO)cn4)sc23)CC1` [Compound 61], the 50% inhibitory concentration (IC50) in assay [1] is more than 10000 nM; in assay [2], less than 100 nM.

Regarding `C/C(=N/O)c1cccc(-c2nc(N3CCOCC3)c3sc(CN(C)c4ncc(C(=O)NO)cn4)cc3n2)c1` [Compound 299], the IC50 is 100 to 1000 nM in assay [1] and less than 100 nM in assay [2].

Regarding `CCCc1nc2cc(/C=C/C(=O)NO)ccc2n1CCN(C)Cc1cc2nc(-c3ccc(N)cc3)nc(N3CCOCC3)c2s1` [Compound 324], the IC50 in assay [1] and in assay [2] was 100 to 1000 nM each time.

As to `COc1ccccc1Nc1nc(-c2cccc3[nH]ncc23)nc2cc(CN(C)c3ncc(C(=O)NO)cn3)sc12` [Compound 167], the half-maximal inhibitory concentration (IC50) in assay [1] was 100 to 1000 nM; in assay [2], less than 100 nM.

Regarding `CN(Cc1cc2nc(-c3cccc(S(=O)(=O)CCO)c3)nc(N3CCOCC3)c2s1)c1ncc(C(=O)NO)cn1` [Compound 291], the half-maximal inhibitory concentration (IC50) is more than 10000 nM in assay [1] and less than 100 nM in assay [2].

With `CC(C)C(=O)Nc1ccc(-c2nc(N3CCOCC3)c3sc(CN(C)c4ncc(C(=O)NO)cn4)cc3n2)cc1` [Compound 286], the IC50 in assay [1] was 100 to 1000 nM; in assay [2], less than 100 nM.

With `O=C(NO)c1ccc2c(ccn2Cc2cc3nc(-c4cccc5[nH]ncc45)nc(N4CCOCC4)c3s2)c1` [Compound 105], the IC50 in assay [1] is more than 10000 nM; in assay [2], 100 to 1000 nM.

On to `CNc1ccc(-c2nc(N3CCOCC3)c3sc(NS(=O)(=O)c4cccc(/C=C/C(=O)NO)c4)cc3n2)cn1` [Compound 224], for which the half-maximal inhibitory concentration (IC50) in assay [1] and in assay [2] was less than 100 nM throughout.

As to `O=C(NO)c1ccc(CNCc2cc3nc(-c4cccc5[nH]ncc45)nc(N4CCOCC4)c3s2)cc1` [Compound 203], the concentration for half-maximal inhibition (IC50) in assay [1] and in assay [2] was 100 to 1000 nM in each case.

For `CN(Cc1cc2nc(-c3cccc4[nH]c(=O)sc34)nc(N3CCOCC3)c2s1)c1ncc(C(=O)NO)cn1` [Compound 317], the half-maximal inhibitory concentration (IC50) in assay [1] and in assay [2] was less than 100 nM throughout.
